ChEMBL document CHEMBL1158872, “Four new bioactive polybrominated diphenyl ethers of the sponge Dysidea herbacea from West Sumatra, Indonesia” (J Nat Prod, 1997)
≈ marks a conversion by molar mass, not a printed value. Calls of active or inactive are those of the source. The calls are words filed in the database; no cut-off is given here.

Legend:
[1] = tested on: Cladosporium cucumerinum; test: Antimicrobial activity against Cladosporium cucumerinum at 50 nmol after 2 days by TLC based bioautography method; assay type: functional
[2] = Toxicity against Artemia salina; assay type: organism-based; details: in vivo
[3] = tested on: Escherichia coli; test: Antimicrobial activity against Escherichia coli; assay type: functional, organism-based
[4] = tested on: Cladosporium cucumerinum; test: Antimicrobial activity against Cladosporium cucumerinum at 25 nmol after 2 days by TLC based bioautography method; assay type: functional

| Structure (SMILES) | inhibition zone (IZ) [1] | LC50 [2] | Activity [3] | inhibition zone (IZ) [4] |
| --- | --- | --- | --- | --- |
| Oc1c(Br)c(Br)c(Br)c(Br)c1Oc1ccc(Br)cc1Br | 8 mm | 0.94 µg/mL (≈ 1.43 µM) | inactive | 5 mm |
| Oc1cc(Br)c(Br)c(Br)c1Oc1ccccc1Br | 13 mm | 3.3 µg/mL (≈ 6.58 µM) | inactive | 8 mm |
| Oc1c(Br)cc(Br)cc1Oc1ccc(Br)cc1Br | 3.5 mm | 8.66 µg/mL (≈ 17.3 µM) | inactive | 1.5 mm |
| Oc1c(Br)c(Br)c(Br)c(Br)c1Oc1ccccc1Br | 14 mm | 0.96 µg/mL (≈ 1.65 µM) | inactive | 7 mm |
| COc1c(Br)cc(Br)c(Br)c1Oc1ccccc1Br |  | 26.2 µg/mL (≈ 50.9 µM) | inactive |  |
